Read-outs that look alike come from different tables or passages of the source.
How the values were obtained:
collagenase [1] = settings: for Collagenase Activity/Days 1: day 1; for Collagenase Activity/Days 2: day 2; for Collagenase Activity/Days 7: day 7
[2] = system: mixed bacteria on fresh hide samples; set-up: Growth/Days 2 / Growth/Days 4: key to the marks not given beside the values; settings: for Growth/Days 1: day 1; for Growth/Days 2: day 2; for Growth/Days 4: day 4;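 for all read-outs here: fresh hide pieces laid on inhibitor-containing nutrient agar supplemented with 0.5% Azocoll, incubated at 30 °C, then scored for growth of bacteria originating from the hide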
Aeromonas salmonicida = system: Aeromonas salmonicida; set-up: key to the marks not given beside the values; settings: for Growth/Days 1: day 1; for Growth/Days 2: day 2; for Growth/Days 7: day 7
Description: (§1) Nutrient agar amended with Azocoll (a substrate made up of insoluble particles of collagen impregnated with a bright azo dye) was used as the test medium to study collagenase activity. The nutrient agar was prepared and autoclaved and then was cooled to 55° C. Azocol was added to give a final concentration of 0.5%. […] Using a sterile spatula or cork-borer, the middle portion of each plate of about the size of a United States quarter, was scooped out. Fresh nutrient agar-azocoll medium containing no inhibitor was added to replace the scooped out portion of the plate. […] The bacteria were grown overnight on nutrient agar. A suspension of each culture was made in sterile water and used to inoculate the middle portion of each plate. The treated samples were incubated at 30° C. and evaluated after 24 hours, 2 days and 7 days for collagenase activity and also for the growth of the bacteria. The test cultures secreted collagenase into the medium as they grew to degrade the collagen in the azocoll medium, and collagenase activity was determined by visual inspection of the clear zone around the bacteria. All % are by weight percent of the active ingredient.

collagenase [3] = settings: for Collagenase Activity/Days 1: day 1; for Collagenase Activity/Days 2: day 2; for Collagenase Activity/Days 7: day 7; remark: listed apart in the source
Pseudomonas fluorescens = settings: for Growth/Days 1: day 1; for Growth/Days 2: day 2; for Growth/Days 7: day 7
Description: as §1

collagenase [4] = settings: for Collagenase Activity/Days 1: day 1; for Collagenase Activity/Days 2: day 2; for Collagenase Activity/Days 7: day 7; remark: listed apart in the source
Description: Nutrient agar amended with 0.5% AZOCOLL was used as the test medium to study collagenase activity. The nutrient agar was prepared and autoclaved and then was cooled to 55° C. Azocol was added to give a final concentration of 0.5%. […] Fresh hides were obtained from a tannery and were cut into pieces of approximately 2 cm square. One 2×2 cm hide sample was placed on top of the agar containing the inhibitors. Treated samples were incubated at 30° C. and evaluated after 24 hours, 2 days, 3 or 4 days and 7 days for collagenase activity and also for the growth of the bacteria. The bacteria from the hides secreted collagenase into the medium as they grew to degrade the collagen in the azocoll medium and collagenase activity was determined by visual inspection of the clear zone around the bacteria
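Throughout, for Collagenase Activity/Days 4: nutrient agar containing 0.5% Azocoll with inhibitor, topped by a fresh hide piece, kept at 30 °C, collagenase from hide bacteria scored visually as clearing zone around growth.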

Structure (SMILES): O=C(O)CN(CCOCCOCCN(CC(=O)O)CC(=O)O)CC(=O)O [Na4EGTA, ethylene glycol-bis(β-aminoethylether)-N,N,N′N′-tetraacetic acid]
- Collagenase Activity/Days 1 (collagenase [1]; Conc. 0.025%): ++++
- Collagenase Activity/Days 2 (collagenase [1]; Conc. 0.025%): ++++
- Collagenase Activity/Days 7 (collagenase [1]; Conc. 0.025%): ++++
- Collagenase Activity/Days 1 (collagenase [1]; Conc. 0.075%): 0
- Collagenase Activity/Days 1 (collagenase [1]; Conc. 0.1%): 0
- Collagenase Activity/Days 2 (collagenase [1]; Conc. 0.1%): 0
- Collagenase Activity/Days 1 (collagenase [1]; Conc. 0.2%): 0
- Collagenase Activity/Days 2 (collagenase [1]; Conc. 0.2%): 0
- Collagenase Activity/Days 1 (collagenase [1]; Conc. 0.3%): 0
- Collagenase Activity/Days 2 (collagenase [1]; Conc. 0.3%): 0
- Collagenase Activity/Days 1 (collagenase [1]; Conc. 0.4%): 0
- Collagenase Activity/Days 2 (collagenase [1]; Conc. 0.4%): 0
- Collagenase Activity/Days 1 (collagenase [1]; Conc. 0.5%): 0
- Collagenase Activity/Days 2 (collagenase [1]; Conc. 0.5%): 0
- Collagenase Activity/Days 7 (collagenase [1]; Conc. 0.5%): 0
- performance as collagenase inhibitors (summary in words) (collagenase [1]; collagenase produced by the bacteria studied, Table 1): performed very well as collagenase inhibitors
- Growth/Days 1 ([2]; Conc. 0.025%): ++++
- Growth/Days 2 ([2]; Conc. 0.025%): ++++
- Growth/Days 4 ([2]; Conc. 0.025%): ++++
- Growth/Days 1 ([2]; Conc. 0.05%): ++++
- Growth/Days 2 ([2]; Conc. 0.05%): ++++
- Growth/Days 4 ([2]; Conc. 0.05%): ++++
- Growth/Days 1 ([2]; Conc. 0.075%): ++++
- Growth/Days 2 ([2]; Conc. 0.075%): ++++
- Growth/Days 4 ([2]; Conc. 0.075%): ++++
- Growth/Days 1 ([2]; Conc. 0.1%): ++++
- Growth/Days 2 ([2]; Conc. 0.1%): ++++
- Growth/Days 4 ([2]; Conc. 0.1%): ++++
- Growth/Days 1 ([2]; Conc. 0.2%): ++++
- Growth/Days 2 ([2]; Conc. 0.2%): ++++
- Growth/Days 4 ([2]; Conc. 0.2%): ++++
- Growth/Days 1 ([2]; Conc. 0.3%): ++++
- Growth/Days 2 ([2]; Conc. 0.3%): ++++
- Growth/Days 4 ([2]; Conc. 0.3%): ++++
- Growth/Days 1 ([2]; Conc. 0.4%): +++
- Growth/Days 2 ([2]; Conc. 0.4%): ++++
- Growth/Days 4 ([2]; Conc. 0.4%): ++++
- Growth/Days 1 ([2]; Conc. 0.5%): +++
- Growth/Days 2 ([2]; Conc. 0.5%): ++++
- Growth/Days 4 ([2]; Conc. 0.5%): ++++
- Growth/Days 1 (Aeromonas salmonicida; Conc. 0.1%): ++++
- Growth/Days 2 (Aeromonas salmonicida; Conc. 0.1%): ++++
- Growth/Days 7 (Aeromonas salmonicida; Conc. 0.1%): ++++
- Growth/Days 1 (Aeromonas salmonicida; Conc. 0.25%): ++++
- Growth/Days 2 (Aeromonas salmonicida; Conc. 0.25%): ++++
- Growth/Days 7 (Aeromonas salmonicida; Conc. 0.25%): ++++
- Growth/Days 1 (Aeromonas salmonicida; Conc. 0.5%): ++++
- Growth/Days 2 (Aeromonas salmonicida; Conc. 0.5%): ++++
- Growth/Days 7 (Aeromonas salmonicida; Conc. 0.5%): ++++
- Collagenase Activity/Days 1 (collagenase [3]; Conc. 0.1%): 0
- Collagenase Activity/Days 2 (collagenase [3]; Conc. 0.1%): 0
- Collagenase Activity/Days 1 (collagenase [3]; Conc. 0.25%): 0
- Collagenase Activity/Days 2 (collagenase [3]; Conc. 0.25%): 0
- Collagenase Activity/Days 7 (collagenase [3]; Conc. 0.25%): 0
- Collagenase Activity/Days 1 (collagenase [3]; Conc. 0.5%): 0
- Collagenase Activity/Days 2 (collagenase [3]; Conc. 0.5%): 0
- Collagenase Activity/Days 7 (collagenase [3]; Conc. 0.5%): 0
- performance as collagenase inhibitors (summary in words) (collagenase [3]; collagenase produced by the bacteria studied, Table 2): performed very well as collagenase inhibitors
- Growth/Days 1 (Pseudomonas fluorescens; Conc. 0.025%): ++++
- Growth/Days 2 (Pseudomonas fluorescens; Conc. 0.025%): ++++
- Growth/Days 7 (Pseudomonas fluorescens; Conc. 0.025%): ++++
- Growth/Days 1 (Pseudomonas fluorescens; Conc. 0.05%): ++++
- Growth/Days 2 (Pseudomonas fluorescens; Conc. 0.05%): ++++
- Growth/Days 7 (Pseudomonas fluorescens; Conc. 0.05%): ++++
- Growth/Days 1 (Pseudomonas fluorescens; Conc. 0.075%): ++++
- Growth/Days 2 (Pseudomonas fluorescens; Conc. 0.075%): ++++
- Growth/Days 7 (Pseudomonas fluorescens; Conc. 0.075%): ++++
- Growth/Days 1 (Pseudomonas fluorescens; Conc. 0.1%): ++++
- Growth/Days 2 (Pseudomonas fluorescens; Conc. 0.1%): ++++
- Growth/Days 7 (Pseudomonas fluorescens; Conc. 0.1%): ++++
- Growth/Days 1 (Pseudomonas fluorescens; Conc. 0.2%): ++++
- Growth/Days 2 (Pseudomonas fluorescens; Conc. 0.2%): ++++
- Growth/Days 7 (Pseudomonas fluorescens; Conc. 0.2%): ++++
- Growth/Days 1 (Pseudomonas fluorescens; Conc. 0.3%): ++++
- Growth/Days 2 (Pseudomonas fluorescens; Conc. 0.3%): ++++
- Growth/Days 7 (Pseudomonas fluorescens; Conc. 0.3%): ++++
- Growth/Days 1 (Pseudomonas fluorescens; Conc. 0.4%): ++++
- Growth/Days 2 (Pseudomonas fluorescens; Conc. 0.4%): ++++
- Growth/Days 7 (Pseudomonas fluorescens; Conc. 0.4%): ++++
- Growth/Days 1 (Pseudomonas fluorescens; Conc. 0.5%): ++++
- Growth/Days 2 (Pseudomonas fluorescens; Conc. 0.5%): ++++
- Growth/Days 7 (Pseudomonas fluorescens; Conc. 0.5%): ++++
- Collagenase Activity/Days 1 (collagenase [4]; Conc. 0.025%): ++++
- Collagenase Activity/Days 2 (collagenase [4]; Conc. 0.025%): ++++
- Collagenase Activity/Days 4 (collagenase [4]; Conc. 0.025%, day 4): ++++
- Collagenase Activity/Days 7 (collagenase [4]; Conc. 0.025%): ++++
- Collagenase Activity/Days 4 (collagenase [4]; Conc. 0.05%, day 4): ++++
- Collagenase Activity/Days 1 (collagenase [4]; Conc. 0.075%): 0
- Collagenase Activity/Days 4 (collagenase [4]; Conc. 0.075%, day 4): ++++
- Collagenase Activity/Days 1 (collagenase [4]; Conc. 0.1%): 0
- Collagenase Activity/Days 2 (collagenase [4]; Conc. 0.1%): 0
- Collagenase Activity/Days 4 (collagenase [4]; Conc. 0.1%, day 4): +
- Collagenase Activity/Days 1 (collagenase [4]; Conc. 0.2%): 0
- Collagenase Activity/Days 2 (collagenase [4]; Conc. 0.2%): 0
- Collagenase Activity/Days 4 (collagenase [4]; Conc. 0.2%, day 4): +
- Collagenase Activity/Days 1 (collagenase [4]; Conc. 0.3%): 0
- Collagenase Activity/Days 2 (collagenase [4]; Conc. 0.3%): 0
- Collagenase Activity/Days 4 (collagenase [4]; Conc. 0.3%, day 4): +
- Collagenase Activity/Days 1 (collagenase [4]; Conc. 0.4%): 0
- Collagenase Activity/Days 2 (collagenase [4]; Conc. 0.4%): 0
- Collagenase Activity/Days 4 (collagenase [4]; Conc. 0.4%, day 4): 0
- Collagenase Activity/Days 4 (collagenase [4]; Conc. 0.5%, column day 4, footnote **: data collected on Day 3): 0**
- Collagenase Activity/Days 1 (collagenase [4]; Conc. 0.5%): 0
- Collagenase Activity/Days 2 (collagenase [4]; Conc. 0.5%): 0
- Collagenase Activity/Days 7 (collagenase [4]; Conc. 0.5%): 0
- performance as collagenase inhibitors (summary in words) (collagenase [4]; collagenase produced by the mixed culture of bacteria from the hides): performed very well as collagenase inhibitors

Reference: patent US20060112494A1, “Method of protecting an animal skin product from metalloproteinase activity” (priority 2004, published 2006)
